Experimental findings from patent US9370535B2, “Method for treatment of advanced solid tumors” (BOEHRINGER INGELHEIM INTERNATIONAL GMBH, priority 2011, dated 2016) are described below.

The series deals with patients with advanced and/or metastatic solid tumours. Briefly: Clinical trial of Volasertib in combination with Cisplatin (arm A) or Carboplatin (arm B). The class given is in vivo. The note with it: for maximum tolerated dose for volasertib: single 2-hour infusion on day 1 every 3 weeks. The source says:
Sequential cohorts of three to six patients (pts) received a single 2-hour infusion of Volasertib (V) in combination with Cisplatin (Cis) (arm A) or Carboplatin (Ca) (arm B), on day 1 every 3 weeks. Cis and Ca were given for up to six cycles (Cy), V was continued until disease progression or unacceptable toxicity.

With `CC[C@@H]1C(=O)N(C)c2cnc(Nc3ccc(C(=O)N[C@H]4CC[C@H](N5CCN(CC6CC6)CC5)CC4)cc3OC)nc2N1C(C)C` [Volasertib, N-[trans-4-[4-(cyclopropylmethyl)-1-piperazinyl]cyclohexyl]-4-[[(7R)-7-ethyl-5,6,7,8-tetrahydro-5-methyl-8-(1-methylethyl)-6-oxo-2-pteridinyl]amino]-3-methoxy-benzamide], the “partial responses (PR) observed” value (arm A (with Cisplatin), CHOP-resistant follicular dendritic reticulum cell sarcoma, dose levels A2, A4) is recorded as “two”; the “partial responses (PR) observed” value (arm A (with Cisplatin), pretreated lung cancer, dose level A5, PR yet to be confirmed) was “one”; the “partial responses (PR) observed” value (arm B (with Carboplatin), heavily-pretreated head and neck carcinoma, dose level B4) was “one”; the “partial responses (PR) observed” value (both arms together (combination with Cisplatin or Carboplatin), 46 patients) is “Four”. Further, the “side effects (myelosuppression) on combination” value (human, in vivo) is recorded as “without potentiation of those side effects”. Also, the “maximum tolerated dose for volasertib” value is reported as no less than 300 mg (in combination with carboplatin) and no less than 300 mg (in combination with cisplatin).
